# Laboratory results as given in paper PMC5218480 (PLoS ONE, 2017).
# Tested on: MV-4-11 cells
# Experiment: Gene expression microarray analysis (Affymetrix PrimeView) and GSEA
# Type: cell-based, human
# Set-up: RFU PODN (11730768_x_at) / Fold change /veh PODN (11730768_x_at) / RFU LINC00158 (11744669_a_at) / Fold change /veh LINC00158 (11744669_a_at) / RFU DUSP10 (11751237_a_at) / Fold change /veh DUSP10 (11751237_a_at) / RFU ID3 (11757404_x_at) / Fold change /veh ID3 (11757404_x_at) / RFU PLEKHG5 (11737974_s_at) / Fold change /veh PLEKHG5 (11737974_s_at) / RFU LRRC4B (11730491_at) / Fold change /veh LRRC4B (11730491_at) / RFU GIMAP4 (11747438_a_at) / Fold change /veh GIMAP4 (11747438_a_at) / RFU KRT8 (11758183_x_at) / Fold change /veh KRT8 (11758183_x_at) / RFU CNN1 (11734310_a_at) / Fold change /veh CNN1 (11734310_a_at) / RFU VPS37D (11726825_at) / Fold change /veh VPS37D (11726825_at) / RFU C10orf10 (11716522_x_at) / Fold change /veh C10orf10 (11716522_x_at) / RFU KIR2DL2 /// KIR2DL4 /// KIR2DL5A /// KIR2DL5B /// KIR2DS1 /// KIR2DS2 /// KIR2DS3 /// KIR2DS4 /// KIR3DL3 /// KIR3DL3 /// KIR3DS1 (11738374_at) / Fold change /veh KIR2DL2 /// KIR2DL4 /// KIR2DL5A /// KIR2DL5B /// KIR2DS1 /// KIR2DS2 /// KIR2DS3 /// KIR2DS4 /// KIR3DL3 /// KIR3DL3 /// KIR3DS1 (11738374_at) / RFU C1QL1 (11718748_at) / Fold change /veh C1QL1 (11718748_at) / RFU TMPRSS4 (11747572_a_at) / Fold change /veh TMPRSS4 (11747572_a_at) / RFU HAMP (11756126_x_at) / Fold change /veh HAMP (11756126_x_at) / RFU RNFT2 (11725882_a_at) / Fold change /veh RNFT2 (11725882_a_at) / RFU NR4A2 (11747474_a_at) / Fold change /veh NR4A2 (11747474_a_at) / RFU ABCC12 (11746883_a_at) / Fold change /veh ABCC12 (11746883_a_at) / RFU TMEM136 (11760407_x_at) / Fold change /veh TMEM136 (11760407_x_at) / RFU CLDN22 /// WWC2 (11732394_at) / Fold change /veh CLDN22 /// WWC2 (11732394_at) / RFU HLA-DPB1 (11760878_x_at) / Fold change /veh HLA-DPB1 (11760878_x_at) / RFU SPINT1 (11716480_a_at) / Fold change /veh SPINT1 (11716480_a_at) / RFU GAP43 (11754022_s_at) / Fold change /veh GAP43 (11754022_s_at) / RFU A4GNT (11735810_at) / Fold change /veh A4GNT (11735810_at) / RFU PRB3 (11715151_x_at) / Fold change /veh PRB3 (11715151_x_at) / RFU TUBB4B (11761932_at) / Fold change /veh TUBB4B (11761932_at) / RFU CAPN14 (11732068_a_at) / Fold change /veh CAPN14 (11732068_a_at) / RFU TMCC2 (11721928_a_at) / Fold change /veh TMCC2 (11721928_a_at) / RFU IRGQ (11745062_a_at) / Fold change /veh IRGQ (11745062_a_at) / RFU FAM174B (11720279_a_at) / Fold change /veh FAM174B (11720279_a_at) / RFU TMPRSS4 (11748680_a_at) / Fold change /veh TMPRSS4 (11748680_a_at) / RFU FAM212B (11763350_a_at) / Fold change /veh FAM212B (11763350_a_at) / RFU PLEKHG5 (11743358_a_at) / Fold change /veh PLEKHG5 (11743358_a_at) / RFU ZSCAN30 (11745921_a_at) / Fold change /veh ZSCAN30 (11745921_a_at) / RFU CMKLR1 (11741424_a_at) / Fold change /veh CMKLR1 (11741424_a_at) / RFU LOC101060620 /// MAPK8IP1 (11723275_at) / Fold change /veh LOC101060620 /// MAPK8IP1 (11723275_at) / RFU SPTSSB (11747773_x_at) / Fold change /veh SPTSSB (11747773_x_at) / RFU PRSS12 (11739890_at) / Fold change /veh PRSS12 (11739890_at) / RFU BIN1 (11741810_x_at) / Fold change /veh BIN1 (11741810_x_at) / RFU WNT11 (11732464_a_at) / Fold change /veh WNT11 (11732464_a_at) / RFU C10orf10 (11716521_a_at) / Fold change /veh C10orf10 (11716521_a_at) / RFU C5orf56 (11738089_at) / Fold change /veh C5orf56 (11738089_at) / RFU CYB561 (11721691_x_at) / Fold change /veh CYB561 (11721691_x_at) / RFU ANKRD19P (11752326_a_at) / Fold change /veh ANKRD19P (11752326_a_at) / RFU OR2T12 /// OR2T33 /// OR2T8 (11738714_s_at) / Fold change /veh OR2T12 /// OR2T33 /// OR2T8 (11738714_s_at) / RFU VCAN (11748164_a_at) / Fold change /veh VCAN (11748164_a_at) / RFU JSRP1 (11732532_at) / Fold change /veh JSRP1 (11732532_at) / RFU KRTAP10-11 (11738290_x_at) / Fold change /veh KRTAP10-11 (11738290_x_at) / RFU MYO3A (11730013_a_at) / Fold change /veh MYO3A (11730013_a_at) / RFU EBF3 (11725865_a_at) / Fold change /veh EBF3 (11725865_a_at) / RFU CAMK2N1 (11719241_x_at) / Fold change /veh CAMK2N1 (11719241_x_at) / RFU C5orf56 (11738088_a_at) / Fold change /veh C5orf56 (11738088_a_at) / RFU OLFML3 (11715873_a_at) / Fold change /veh OLFML3 (11715873_a_at) / RFU LOC100653217 /// NTM (11731650_a_at) / Fold change /veh LOC100653217 /// NTM (11731650_a_at) / RFU MAPK11 (11762145_a_at) / Fold change /veh MAPK11 (11762145_a_at) / RFU FIZ1 (11724087_x_at) / Fold change /veh FIZ1 (11724087_x_at) / RFU OASL (11726364_x_at) / Fold change /veh OASL (11726364_x_at) / RFU SOX15 (11748057_x_at) / Fold change /veh SOX15 (11748057_x_at) / RFU CD79A (11719716_a_at) / Fold change /veh CD79A (11719716_a_at) / RFU HIST1H1D (11736915_at) / Fold change /veh HIST1H1D (11736915_at) / RFU CASKIN2 (11723855_a_at) / Fold change /veh CASKIN2 (11723855_a_at) / RFU LOC730098 (11760151_x_at) / Fold change /veh LOC730098 (11760151_x_at) / RFU OR4N2 (11742367_at) / Fold change /veh OR4N2 (11742367_at) / RFU PRRT2 (11749266_a_at) / Fold change /veh PRRT2 (11749266_a_at) / RFU SNX32 (11753110_a_at) / Fold change /veh SNX32 (11753110_a_at) / RFU CDHR5 (11726645_a_at) / Fold change /veh CDHR5 (11726645_a_at) / RFU RCAN1 (11760418_a_at) / Fold change /veh RCAN1 (11760418_a_at) / RFU FAM167A (11723789_a_at) / Fold change /veh FAM167A (11723789_a_at) / RFU FAM26E (11764081_at) / Fold change /veh FAM26E (11764081_at) / RFU ISYNA1 (11749810_s_at) / Fold change /veh ISYNA1 (11749810_s_at) / RFU ACY1 (11761880_at) / Fold change /veh ACY1 (11761880_at) / RFU 11764098_at / Fold change /veh 11764098_at / RFU SAMD14 (11745864_x_at) / Fold change /veh SAMD14 (11745864_x_at) / RFU NPB (11741838_a_at) / Fold change /veh NPB (11741838_a_at) / RFU TMPRSS6 (11731388_a_at) / Fold change /veh TMPRSS6 (11731388_a_at) / RFU KRTAP10-2 (11738614_at) / Fold change /veh KRTAP10-2 (11738614_at) / RFU ARHGAP8 /// PRR5-ARHGAP8 (11727945_x_at) / Fold change /veh ARHGAP8 /// PRR5-ARHGAP8 (11727945_x_at) / RFU KRTAP5-7 /// NADSYN1 (11734609_at) / Fold change /veh KRTAP5-7 /// NADSYN1 (11734609_at) / RFU RASL12 (11751679_a_at) / Fold change /veh RASL12 (11751679_a_at) / RFU CDKN2B (11736163_a_at) / Fold change /veh CDKN2B (11736163_a_at) / RFU PRF1 (11729649_at) / Fold change /veh PRF1 (11729649_at) / RFU, ZNF638 /// ZNF638-IT1 / Fold change vs veh, ZNF638 /// ZNF638-IT1 / RFU, PANK3 / Fold change vs veh, PANK3 / RFU, SH3YL1 / Fold change vs veh, SH3YL1 / RFU, ZEB2 / Fold change vs veh, ZEB2 / RFU, NRIP1 / Fold change vs veh, NRIP1 / RFU, PTTG1IP / Fold change vs veh, PTTG1IP / RFU, CAPN2 / Fold change vs veh, CAPN2 / RFU, MED14 / Fold change vs veh, MED14 / RFU, SNORA58 / Fold change vs veh, SNORA58 / RFU, C1orf63 / Fold change vs veh, C1orf63 / RFU, LRRFIP1 / Fold change vs veh, LRRFIP1 / RFU, NDUFAF7 / Fold change vs veh, NDUFAF7 / RFU, SLC12A2 / Fold change vs veh, SLC12A2 / RFU, IBTK / Fold change vs veh, IBTK / RFU, ESF1 / Fold change vs veh, ESF1 / Fold change vs veh, TMEM50B / RFU, TAOK1 / Fold change vs veh, TAOK1 / RFU, ACBD3 / Fold change vs veh, ACBD3 / RFU, TMA16 / Fold change vs veh, TMA16 / RFU, RWDD3 / Fold change vs veh, RWDD3 / RFU, BCAT1 / Fold change vs veh, BCAT1 / RFU, EDEM3 / Fold change vs veh, EDEM3 / RFU, TMEM33 / Fold change vs veh, TMEM33 / RFU, WDR75 / Fold change vs veh, WDR75 / RFU, AHCTF1 / Fold change vs veh, AHCTF1 / RFU, TFRC / Fold change vs veh, TFRC / RFU, ZDHHC17 / Fold change vs veh, ZDHHC17 / RFU, NOM1 / Fold change vs veh, NOM1 / RFU, ARL8B / Fold change vs veh, ARL8B / RFU, ZBTB11 / Fold change vs veh, ZBTB11 / RFU, TAMM41 / Fold change vs veh, TAMM41 / RFU, KIAA1704 /// LOC100996395 / Fold change vs veh, KIAA1704 /// LOC100996395 / RFU, ING1 / Fold change vs veh, ING1 / RFU, TRMT61B / Fold change vs veh, TRMT61B / RFU, FUBP3 / Fold change vs veh, FUBP3 / RFU, TP53 / Fold change vs veh, TP53 / RFU, TNKS2 / Fold change vs veh, TNKS2 / RFU, ZFP14 / Fold change vs veh, ZFP14 / RFU, ACTR2 / Fold change vs veh, ACTR2 / RFU, PPP3R1 / Fold change vs veh, PPP3R1 / RFU, PIK3R1 / Fold change vs veh, PIK3R1 / RFU, HNRNPA1 / Fold change vs veh, HNRNPA1 / RFU, RNF170 / Fold change vs veh, RNF170 / RFU, ZNF28 / Fold change vs veh, ZNF28 / RFU, RNGTT / Fold change vs veh, RNGTT / RFU, OGT / Fold change vs veh, OGT / RFU, BRD1 / Fold change vs veh, BRD1 / RFU, MARS / Fold change vs veh, MARS / RFU, ZNF655 / Fold change vs veh, ZNF655 / RFU, FAHD1 / Fold change vs veh, FAHD1 / RFU, BDP1 / Fold change vs veh, BDP1 / RFU, LRRCC1 / Fold change vs veh, LRRCC1 / RFU, ARID1A / Fold change vs veh, ARID1A / RFU, ZNF146 / Fold change vs veh, ZNF146 / RFU, ZNF330 / Fold change vs veh, ZNF330 / RFU, GPN3 / Fold change vs veh, GPN3 / RFU, C9orf123 / Fold change vs veh, C9orf123 / RFU, N4BP2L2 / Fold change vs veh, N4BP2L2 / RFU, ARFIP1 / Fold change vs veh, ARFIP1 / RFU, FAM179B / Fold change vs veh, FAM179B / RFU, BCL10 / Fold change vs veh, BCL10 / RFU, UHRF1BP1L / Fold change vs veh, UHRF1BP1L / RFU, BET1 / Fold change vs veh, BET1 / RFU, CNOT2 / Fold change vs veh, CNOT2 / RFU, ZNF268 / Fold change vs veh, ZNF268 / Fold change vs veh, ZNF507 / RFU, DGCR2 / Fold change vs veh, DGCR2 / RFU, WDSUB1 / Fold change vs veh, WDSUB1 / Fold change vs veh, HSP90B1 /// MIR3652 / RFU, ADSS / Fold change vs veh, ADSS / RFU, GK / Fold change vs veh, GK / RFU, ZNF148 / Fold change vs veh, ZNF148 / RFU, TAF9 / Fold change vs veh, TAF9 / RFU, SLC1A5 / Fold change vs veh, SLC1A5 / RFU, SLMO2 / Fold change vs veh, SLMO2 / RFU, ABCC4 / Fold change vs veh, ABCC4 / RFU, LOC101060439 /// RAP1B / Fold change vs veh, LOC101060439 /// RAP1B / RFU, RFX7 / Fold change vs veh, RFX7 / RFU, GTPBP10 / Fold change vs veh, GTPBP10 / RFU, CNEP1R1 / Fold change vs veh, CNEP1R1 / RFU, BIVM-ERCC5 /// ERCC5 / Fold change vs veh, BIVM-ERCC5 /// ERCC5 / RFU, ILF3 / Fold change vs veh, ILF3 / RFU 11762660_at / Fold change /veh 11762660_at / RFU VCAN (11757783_s_at) / Fold change /veh VCAN (11757783_s_at) / RFU DDX43 (11728927_at) / Fold change /veh DDX43 (11728927_at) / RFU KRT8 (11758188_x_at) / Fold change /veh KRT8 (11758188_x_at) / RFU NKD1 (11759106_at) / Fold change /veh NKD1 (11759106_at) / RFU SRD5A1 (11742802_a_at) / Fold change /veh SRD5A1 (11742802_a_at) / RFU TPSAB1 /// TPSB2 (11721975_s_at) / Fold change /veh TPSAB1 /// TPSB2 (11721975_s_at) / RFU GSTM3 (11746129_a_at) / Fold change /veh GSTM3 (11746129_a_at) / RFU IL23R (11737362_x_at) / Fold change /veh IL23R (11737362_x_at) / RFU TMEM51 (11727254_a_at) / Fold change /veh TMEM51 (11727254_a_at) / RFU PIWIL2 (11732686_x_at) / Fold change /veh PIWIL2 (11732686_x_at) / RFU ORM1 (11744905_x_at) / Fold change /veh ORM1 (11744905_x_at) / RFU CCDC152 (11743942_at) / Fold change /veh CCDC152 (11743942_at) / RFU ECM1 (11717891_a_at) / Fold change /veh ECM1 (11717891_a_at) / RFU IL23R (11748794_a_at) / Fold change /veh IL23R (11748794_a_at) / RFU TNFAIP8L3 (11732012_x_at) / Fold change /veh TNFAIP8L3 (11732012_x_at) / RFU MBOAT4 (11741988_at) / Fold change /veh MBOAT4 (11741988_at) / RFU 11764193_at / Fold change /veh 11764193_at / RFU TMEM53 (11763286_at) / Fold change /veh TMEM53 (11763286_at) / RFU MAGEB2 (11727129_at) / Fold change /veh MAGEB2 (11727129_at) / RFU TMEM200A (11744735_a_at) / Fold change /veh TMEM200A (11744735_a_at) / RFU CCDC152 (11751479_a_at) / Fold change /veh CCDC152 (11751479_a_at) / RFU FAM211A (11726209_a_at) / Fold change /veh FAM211A (11726209_a_at) / RFU RGS16 (11746705_a_at) / Fold change /veh RGS16 (11746705_a_at) / RFU VCAN (11755009_s_at) / Fold change /veh VCAN (11755009_s_at) / RFU RHOB (11743442_s_at) / Fold change /veh RHOB (11743442_s_at) / RFU RGS16 (11720943_a_at) / Fold change /veh RGS16 (11720943_a_at) / RFU RGS16 (11720944_at) / Fold change /veh RGS16 (11720944_at) / RFU, VPS4B / Fold change vs veh, VPS4B / RFU, CREB1 / Fold change vs veh, CREB1 / RFU, DNAJC13 / Fold change vs veh, DNAJC13 / RFU, GNAQ / Fold change vs veh, GNAQ / RFU, CDK5R1 / Fold change vs veh, CDK5R1 / RFU, ZRANB3 / Fold change vs veh, ZRANB3 / RFU, CUL4A / Fold change vs veh, CUL4A / RFU, CCNY / Fold change vs veh, CCNY / RFU, UFL1 / Fold change vs veh, UFL1 / RFU, COG3 / Fold change vs veh, COG3 / RFU, DIAPH2 / Fold change vs veh, DIAPH2 / RFU, SKA2 / Fold change vs veh, SKA2 / RFU, AFF3 / Fold change vs veh, AFF3 / RFU, LMF1 / Fold change vs veh, LMF1 / RFU, IPO11 / Fold change vs veh, IPO11 / RFU, DFFB / Fold change vs veh, DFFB / RFU, FOXP1 / Fold change vs veh, FOXP1 / RFU, CARD8 / Fold change vs veh, CARD8 / RFU, STRN3 / Fold change vs veh, STRN3 / RFU, ADK / Fold change vs veh, ADK / RFU, RASSF2 / Fold change vs veh, RASSF2 / RFU, WIPF1 / Fold change vs veh, WIPF1 / RFU, LARP1B / Fold change vs veh, LARP1B / RFU, RASA1 / Fold change vs veh, RASA1 / RFU, RB1 / Fold change vs veh, RB1 / RFU, PPFIA1 / Fold change vs veh, PPFIA1 / RFU, MAT2A / Fold change vs veh, MAT2A / RFU, CCT5 / Fold change vs veh, CCT5 / RFU, WDR92 / Fold change vs veh, WDR92 / RFU, CUX1 / Fold change vs veh, CUX1 / RFU, TTC7A / Fold change vs veh, TTC7A / RFU, TMEM135 / Fold change vs veh, TMEM135 / RFU, DEPTOR / Fold change vs veh, DEPTOR / RFU, CPM / Fold change vs veh, CPM / RFU, DNAJB6 / Fold change vs veh, DNAJB6 / RFU, CACNA2D3 / Fold change vs veh, CACNA2D3 / RFU, DTX4 / Fold change vs veh, DTX4 / RFU, TFCP2 / Fold change vs veh, TFCP2 / RFU, GMCL1 /// GMCL1P1 / Fold change vs veh, GMCL1 /// GMCL1P1 / RFU, AEBP2 / Fold change vs veh, AEBP2 / RFU, SNHG1 /// SNORD22 /// SNORD25 /// SNORD26 /// SNORD27 /// SNORD28 /// SNORD29 /// SNORD31 / Fold change vs veh, SNHG1 /// SNORD22 /// SNORD25 /// SNORD26 /// SNORD27 /// SNORD28 /// SNORD29 /// SNORD31 / Fold change (Aza/veh), C12orf56 (ProbeSet 11735607_a_at) / Fold change (ACY-1035/veh), C12orf56 (ProbeSet 11735607_a_at) / Fold change (Aza/veh), FGFR1OP (ProbeSet 11751329_s_at) / Fold change (ACY-1035/veh), FGFR1OP (ProbeSet 11751329_s_at) / Fold change (Aza/veh), VPS36 (ProbeSet 11739960_a_at) / Fold change (ACY-1035/veh), VPS36 (ProbeSet 11739960_a_at) / RFU SYPL1 (11715823_x_at) / Fold change /veh SYPL1 (11715823_x_at) / RFU IGFBP7 (11715501_s_at) / Fold change /veh IGFBP7 (11715501_s_at) / RFU REEP3 (11722064_at) / Fold change /veh REEP3 (11722064_at) / RFU IGLL1 (11728026_x_at) / Fold change /veh IGLL1 (11728026_x_at): dose or concentration left out as unconfirmed
# Conditions: MV-4-11 cells, 48 hours
structure (smiles),measurement,value
Nc1ccc(-c2cccs2)cc1NC(=O)c1ccc2c(c1)cc(C1CC1)n2CCN1CCOCC1 [ACY-1035],RFU SYPL1 (11715823_x_at),565.47 RFU
